How the values were obtained:
Assay type in all cases: biochemical
[1] = Inhibition of linoleic acid peroxidation (AAPH, ILPO); conditions: tested at 100 μM
Description: Inhibition of Linoleic Acid Peroxidation.^32 For initiating the free radical, 2,2′-azobis(2-amidinopropane) dihydrochloride (AAPH) is used. The final solution in the UV cuvette consisted of ten microliters of the 16 mM linoleate sodium dispersion 0.93 mL of 0.05 M phosphate buffer, pH 7.4, thermostatted at 37° C. 50 μL of 40 mM AAPH solution was added as a free radical initiator at 37° C. under air and 10 μL of the tested compounds. The oxidation of linoleic acid sodium salt results a conjugated diene hydroperoxide. The reaction is monitored at 234 nm (Table 1).
3.3. Anti-lipid peroxidation activity of QNs. The water-soluble azo compound 2,2′-azobis(2-amidinopropane) dihydrochloride (AAPH) has been extensively used as a clean and controllable source of thermally produced alkyl peroxyl free radicals through spontaneous thermal decomposition. […] In the AAPH assay to determine the inhibition of the lipid peroxidation (ILPO), the highly reactive alkylperoxyl radicals are intercepted mainly by a hydrogen atom transfer from the antioxidant. As shown, QN23 presented limited value, where QNs 19, 22 and 24 presented very high values (Table 3).

[2] = Interaction with the stable radical DPPH; conditions: tested at 100 μM; reducing activity
Description: Interaction of the nitrone with the Stable Radical 1,1-diphenyl-picrylhydrazyl (DPPH) To a solution of DPPH in absolute ethanol the appropriate volume of the compounds (0.1 mM final concentrations) dissolved in DMSO was added. The absorbance was recorded at 517 nm after 20 and 60 min at room temperature (Table 1).
3.1. Antioxidant activity of QNs using radical DPPH. […] This purple colour generally disappears in the presence of an antioxidant due to the reduction of the DPPH radical by single electron transfer (SET) from the antioxidant converted it to colourless/bleached product. […] In this assay, we measured the initial absorbance of DPPH and the absorbance once the potential antioxidant was added. The antioxidant activity was expressed as the percentage of reducing activity.

[3] = Hydroxyl radical scavenging (competition with DMSO); conditions: tested at 100 μM
Description: Hydroxyl Radicals Scavenging Activity.^32 The hydroxyl radicals were produced by the Fe^3+/ascorbic acid system. EDTA (0.1 mM), Fe^3+ (167 μM), DMSO (33 mM) in phosphate buffer (50 mM, pH 7.4), the tested compounds (0.1 mM) and ascorbic acid (10 mM) were mixed in test tubes. The solutions were incubated at 37° C. for 30 min. The reaction was stopped by trichloroacetic acid (17% w/v) (Table 1) and the % scavenging activity of the tested compounds for hydroxyl radicals was given.
3.2. Competition of QNs with DMSO for hydroxyl radicals. Among the ROS, the hydroxyl (·OH) free radical is possibly the most toxic, as it easily reacts with biological important molecules such as DNA, lipids or carbohydrates. Polyunsaturated fatty acids are found in high concentrations in the CNS, and are particularly vulnerable to free radicals attack. Thus, we tried to test the ability of our compound to scavenge hydroxyl radicals. […] Antioxidants with lipophilic character are needed to act as radical scavengers or as chain-breaking antioxidants in biological membranes.

[4] = ABTS radical cation decolorization assay; conditions: tested at 100 μM
Description: ABTS^⋅+-decolorization assay in ethanolic solution for antioxidant activity.^32,35 ABTS is dissolved in water to a 2 mM concentration. ABTS radical cation (ABTS^⋅+) is produced by reacting the ABTS stock solution with 0.17 mM potassium persulfate in phosphate buffer (pH 7.4, 20 mM) and allowing the mixture to stand in the dark at room temperature for 12-16 h before use. For steady state measurements, […] ABTS^⋅+ was used. For the present study, the […] ABTS^⋅ solution (200 μL) was diluted with ethanol (790 μL) to an absorbance of 0.70 at 734 nm, equilibrated at room temperature, mixed with 10 μL of the tested compounds (stock solutions 10 mM) and the absorbance reading was taken at room temperature 1 min after the initial mixing. Trolox was used as a standard.
3.4. ABTS^⋅+ antioxidant activity of QNs. The ABTS^⋅+ radical cation, derived from the oxidation of 2,2′-azino-bis(3-ethylbenzothiazoline-6-sulphonic acid) (ABTS) by potassium persulfate, is a green-blue stable chromophore, which can be analyzed in the course of a decolorization assay. The addition of electron-donor antioxidants leads to ABTS^⋅+ reduction. The chemistry taking place involves the direct generation of the ABTS^⋅+ with no involvement of an intermediary radical. […] Again, and as shown, QN23 presented limited activity beside with 19, although the others nitrones had no activity (Table 3).

[5] = Quantitative nitrite assay for NO release (Griess); conditions: 100 μM, L-cysteine, pH 7.4, 60 min 37° C.
Description: Quantitative nitrite assays for NO release. A solution of nitrone 23 (final concentration 100 μM) (20 μL), dissolved in DMSO, was added to 2 mL of 50 mM phosphate buffer (pH=7.4) containing the appropriate amount of thiol cofactor 1 mM (L-cysteine). After 60 min at 37° C., 1 mL of the reaction mixture was treated with 250 μL of the Griess reagent (4 g sulfanilamide, 0.2 g N-naphthyl-ethyldiamine dihydrochloride, 10 mL of 85% phosphoric acid in distilled water, final volume 100 mL). After the mixture stood for 10 min at rt, absorbance was recorded at 540 nm. Sodium nitroprusside (SNP) was used as standard reference compound (100 μM). The yield in nitrite (NO2^− release) for nitrone 23, as function of L-cysteine (mM concentration) is given in Table 1, expressed as % NO2^− (mol/mol).
QNs were tested in vitro for their ability to release NO by the action of a thiol co-factor. NO release with simultaneous production of cyanide occurs by action of reducing agents like thiols. L-cysteine was used as a co-factor in this in vitro biological test. […] The screened compounds (final concentration 100 μM) was tested for its ability to release NO when dissolved in a phosphate buffer containing L-cysteine (pH 7.4). Air was oxidizing the initially formed NO, transforming it to nitrites, which were detected by the Griess reaction. Virtually, no formation of NO2^− was detectable in the absence of L-cysteine for the nitrones tested.

| Compound | ILPO (%) / AAPH (%) [1] | DPPH (%) [2] | *OH (%) [3] [%] | ABTS*+ (%) [4] | NO2− (%) (mol/mol) [5] |
| --- | --- | --- | --- | --- | --- |
| CC(C)(C)/[N+]([O-])=C/c1ccc(S(=O)(=O)O)cc1S(=O)(=O)O [Compound 2, sodium (Z)-4-((tert-butyloxidoazanylidene)methyl)benzene-1,3-disulfonate, reference compound] | no | no | 94 | no | 1 % (mol/mol) |
| CC(C)(C)/[N+]([O-])=C/c1cc2ccccc2nc1Cl [Compound 18, (Z)—N-t-Butyl-1-(2-chloroquinolin-3-yl)methanimine oxide] | no | 7% | 97 | no | 7.5 % (mol/mol) |
| COc1ccc2nc(Cl)c(/C=[N+](/C)[O-])cc2c1 [Compound 22, (Z)-1-(2-Chloro-6-methoxyquinolin-3-yl)-N-methylmethanimine oxide] | 100% | no | 100 | no | 11 % (mol/mol) |
| CC(C)(C)/[N+]([O-])=C/c1cc2ccccc2[nH]c1=O [Compound 19, (Z)—N-tert-Butyl-1-(2-oxo-1,2-dihydroquinolin-3-yl)methanimine oxide] | 100% | no | 99 | 6% |  |
| COc1ccc2nc(Cl)c(/C=[N+](\[O-])Cc3ccccc3)cc2c1 [Compound 24, (Z)—N-Benzyl-1-(2-chloro-6-methoxyquinolin-3-yl)methanimine oxide] | 100% | 3% | 65 | no | 12.5 % (mol/mol) |
| COc1ccc2nc(Cl)c(/C=[N+](\[O-])C(C)(C)C)cc2c1 [Compound 23, (Z)—N-tert-Butyl-1-(2-chloro-6-methoxyquinolin-3-yl)methanimine oxide] | 22% | 4% | 100 | 7% | 3 % (mol/mol) |
| COc1ccc2nc(Cl)c(C=O)cc2c1 [Compound 32, 2-chloro-6-methoxyquinoline-3-carbaldehyde, reference compound] | 25% | 1% | 89 | 5% | 2.5 % (mol/mol) |

From US12102631B2, “Quinolylnitrones for the treatment and prevention of a cerebral stroke or ischaemia” (ISQUAEMIA BIOTECH, S.L., priority 2018, dated 2024)
